In the oligonucleotide strings, read from the 5' end, every base follows the letter of its sugar. An asterisk marks phosphorothioate; unmarked linkages are phosphodiester. Other units and linkages are bracketed, terminal groups are in braces. A string of capitals states the bases alone. [5'S-Me-N] = (S)-5'-C-methyl nucleoside (N: the base); d = 2'-deoxy (DNA); r = 2'-OH (RNA)
Columns and labels:
phosphodiesterase II = assay: Stability toward 5′-specific exonuclease (phosphodiesterase II); assay type: in vitro ADME; conditions: oligo 0.1 mg/mL, 50 mM NaOAc (pH 6.5), 10 mM MgCl2; for Half-lives (T1/2), ty2: Phosphodiesterase-II 500 mU/mL; for Half-lives (T1/2), t12: reduced Phosphodiesterase-II concentration 100 mU/mL
Procedure: Stability of modified oligonucleotides toward 3′- or 5′-specific exonucleases: Oligonucleotides were prepared in a final concentration of 0.1 mg/mL in either 50 mM Tris (pH 7.2), 10 mM MgCl2 or 50 mM sodium acetate (pH 6.5), 10 mM MgCl2 for assessing the stability towards 3′- or 5′-specific exonucleases, respectively. The exonuclease (150 mU/mL SVPDE for 3′-stability or 500 mU/mL phosphodiesterase II for 5′-stability) was added immediately prior to analysis via IEX HPLC (dionex DNAPac PA200, 4×250 mm) using a gradient of 37-52% mobile phase (1 M NaBr, 20 mM sodium phosphate, pH 11, 15% MeCN; stationary phase: 20 mM sodium phosphate, 15% MeCN, pH 11) over 7.5 min with a flow of 1 mL/min. Samples were analyzed at given time points for up to 24 h. The quantity of full length oligonucleotides was determined as the area under the curve at A260. Percent full length oligonucleotides was calculated by dividing by the area under the curve at t=0 and multiplying by 100. Activity of enzyme was verified for each experiment by including a oligodeoxythymidylate with a terminal phosphorothioate linkage (5′-T19·T (SEQ ID NO: 708) or 5′-T·T19 (SEQ ID NO: 708) for 3′- or 5′-exonuclease activity, respectively). Each aliquot of enzyme was thawed just prior to the experiment. The half-life was determined by fitting to first order kinetics.
5′-Nuclease Stability:_To evaluate the 5′-exonuclease stability of enantiomerically pure (R)- and (S)-5′-C-methyl (C5′-Me) Guanosine substituted nucleosides a dT20 template sequence (“dT20” disclosed as SEQ ID NO: 1) was modified at the 5′-end with one modified nucleotide via PO or PS linkages (Table 13). The structures of the compounds are shown below with guanosine for comparison.
A dT20 template (“dT20” disclosed as SEQ ID NO: 1) having 5′end dT with PS linkages and 5′end Guanosine (G) with either PO or PS linkages were used as the control. ONs were incubated with Phosphodiesterase-II (500 mU/mL), and the half-life (T½) of each modified ON was determined by HPLC-based quantification of the full-length ON as a function of time. The results are summarized in Table 13 and HPLC stability profiles are depicted in FIGS. 24A and 24B showing decay curve of dT20 (SEQ ID NO: 1) modified at the 5′ end with Guanosine and (R) or (S)-5′-C-methyl Guanosine (C5′-MeG) with PO or PS linkages upon incubation with 5′ exonucleases-phosphodiesterase-II as a function of time. FIG. 24A is for the following conditions: a) enzyme conc. 500 mU/mL, Oligo Conc. 0.1 mg/mL, 50 mM NaOAc (pH-6.5):10 Mm MgCl2. FIG. 24B is for the following conditions: enzyme conc. 100 mU/mL, Oligo Conc. 0.1 mg/mL, 50 mM NaOAc (pH-6.5):10 mM MgCl2. The percentage full length ON is calculated by dividing the area under the peak corresponding to full length ON at a given time point by the full length at t=0 and multiplied by 100.
Stability of modified oligonucleotides toward 3′- or 5′-specific exonucleases: Modified oligonucleotides were prepared in a final concentration of 0.1 mg/mL in either 300 mM Tris (pH 7.2), 60 mM MgCl2 or 300 mM sodium acetate (pH 6.5), 60 mM MgCl2 for assessing the stability towards 3′- or 5′-specific exonucleases, respectively. […] Samples were analyzed at given time points for up to 24 h. The quantity of full length oligonucleotides was determined as the area under the curve at A260. Percent full length oligonucleotides was calculated by dividing by the area under the curve at t=0 and multiplying by 100. […]

[1] = system: luciferase reporter plasmids (psiCHECK2, Renilla luciferase fused to target sequence); assay: Off-target Dual-Glo luciferase reporter assay in COS-7 cells; assay type: cell-based; conditions: luciferase reporter plasmids co-transfected with siRNAs into COS-7 cells
Procedure: Dual-Glo® Luciferase assay: Cos7 cells (ATCC, Manassas, VA) were grown to near confluence at 37° C. in an atmosphere of 5% CO2 in DMEM (ATCC) supplemented with 10% FBS, before being released from the plate by trypsinization. siRNA and psiCHCECK2 plasmid transfection was carried out by adding 5 μL of siRNA duplexes and 5 μL of psiCHECK2 plasmid per well along with 5 μL of Opti-MEM plus 0.1 μL of Lipofectamine 2000 per well (Invitrogen, Carlsbad CA. cat #13778-150) and then incubated at room temperature for 15 minutes. The mixture was then added to the cells which were re-suspended in 35 ul of fresh complete media. The transfected cells were incubated at 37° C. in an atmosphere of 5% CO2.
48 hours after the siRNAs and psiCHECK2 plasmid were transfected; Firefly (transfection control) and Renilla (fused to target sequence) luciferase were measured. First, media was removed from cells. Then Firefly luciferase activity was measured by adding 20 μL of Dual-Glo® Luciferase Reagent equal to the culture medium volume to each well and mix. The mixture was incubated at room temperature for 30 minutes before luminescence (500 nm) was measured on a Spectramax (Molecular Devices) to detect the Firefly luciferase signal. Renilla luciferase activity was measured by adding 20 μL of room temperature of Dual-Glo® Stop & Glo® Reagent was added to each well and the plates were incubated for 10-15 minutes before luminescence was again measured to determine the Renilla luciferase signal. The Dual-Glo® Stop & Glo® Reagent, quenches the firefly luciferase signal and sustained luminescence for the Renilla luciferase reaction. siRNA activity was determined by normalizing the Renilla signal to the Firefly (control) signal within each well. The magnitude of siRNA activity was then assessed relative to cells that were transfected with the same vector but were not treated with siRNA or were treated with a non-targeting siRNA. All transfections were done at n=2 or greater.

[2] = Rat toxicity study, clinical pathology parameters; conditions: rats, single subcutaneous dose 30 mg/kg, cohort average
TTR = assay: In vitro on-target activity, primary mouse hepatocytes, transfection, RT-qPCR (TTR siRNAs); assay type: cell-based
Procedure: Cell culture and transfections: Primary Mouse Hepatocytes (Thermo Fisher Scientific/Gibco) were transfected by adding 4.9 μL of Opti-MEM plus 0.1 μL of Lipofectamine RNAiMax per well (Invitrogen, cat #13778-150) to 5 μL of siRNA duplexes per well into a 384-well plate and incubated at room temperature for 15 minutes. 40 μL of Dulbecco's Modified Eagle Medium (Hep3b) or William's Medium (PMH) containing ˜5 ×10^3 cells were then added to the siRNA mixture. Cells were incubated for 24 hours at 37° C. and then processed for RNA purification. Experiments were performed at 10 nM and 0.1 nM doses of siRNA.
Total RNA isolation using DYNABEADS mRNA Isolation Kit: RNA was isolated using an automated protocol on a BioTek-EL406 platform using DYNABEADs (Invitrogen, cat #61012). Briefly, 70 μL of Lysis/Binding Buffer and 10 μL of lysis buffer containing 3 μL of magnetic beads were added to each well. Plates were incubated on an electromagnetic shaker for 10 minutes at room temperature and then magnetic beads were captured and the supernatant was removed. Bead-bound RNA was then washed 2 times with 150 μL Wash Buffer A and once with Wash Buffer B. Beads were then washed with 150 μL Elution Buffer, re-captured and supernatant removed.
cDNA synthesis using ABI High capacity cDNA reverse transcription kit (Applied Biosystems, cat #4368813): 12 μL of a master mix containing 1.2 μL 10× Buffer, 0.48 μL 25× dNTPs, 1.2 μL 10× Random primers, 0.6 μL Reverse Transcriptase, 0.6 μL RNase inhibitor and 7.92 μL of H2O per reaction was added to RNA isolated above. Plates were sealed, mixed, and incubated on an electromagnetic shaker for 10 minutes at room temperature, followed by 2 h 37° C.
Real time PCR: 2 μL of cDNA were added to a master mix containing 2 μL water, 0.5 μL of either an appropriate GAPDH TaqMan VIC Probe or the target probe and 5 μL Lightcycler 480 probe master mix (Roche, cat #04887301001) per well in a 384 well plate (Roche, cat #04887301001). Real time PCR was done in a LightCycler480 Real Time PCR system (Roche). Each duplex was tested in quadruplicate and data were normalized to cells transfected with a non-targeting control siRNA. To calculate relative fold change, real time data were analyzed using the ΔΔCt method and normalized to assays performed with cells transfected with a non-targeting control siRNA.
RT qPCR for Ttr mRNA quantification:_Primary mouse hepatocytes (PMH) were cultured in Williams E Medium with 10% fetal bovine serum. Transfection of cells using RNAiMAX reagent was done as per the manufacturer's recommended protocol. Thus, cells were thawed immediately prior to transfection and then plated onto 384-well plates with a seed density of ˜5000 cells/well. Pre-incubated lipid/siRNA complex (0.1 μL RNAiMax, siRNA, in 5 μL Opti-MEM for 15 min) was added to a 384-well collagen-coated plate (BioCoat; Corning) and cells were incubated for 20 h at 37° C. in an atmosphere of 5% CO2. Eight 6-fold serial dilutions ranging from 10 to 0.036 nM were used to perform dose response experiments. Media was removed before washing and lysing the cells. Using Dynabeads mRNA isolation kit according to manufacturer's protocol, RNA was extracted and subsequently reverse-transcribed with the ABI high capacity cDNA reverse transcription kit. Quantification was done by real-time PCR, whereby the cDNA (2 μL) was added to a master mix that contained 0.5 μL mouse Gapdh TaqMan Probe, 0.5 μL Ttr TaqMan probes, and 5 μL Lightcycler 480 probe master mix per well in a 384-well 50 plate. Real-time PCR was accomplished in an ABI 7900HT RT-PCR system using the ΔΔCt (RQ) assay. Each duplex and concentration was tested in four biological replicates. To calculate relative fold change, real time data were analyzed using the ΔΔCt method and normalized to assays performed with cells transfected with 10 nM nonspecific siRNA. IC50 values were calculated using a 4-parameter fit model using XLFit.

Substance: GpodT19: G(dT)19, 5′ guanosine, PO linkage (DNA rGdTdTdTdTdTdTdTdTdTdTdTdTdTdTdTdTdTdTdT)
- Half-lives (T1/2), ty2 (phosphodiesterase II): <1 h
- Half-lives (T1/2), t12 (phosphodiesterase II): <1 h

Substance: GpsdT19: Gs(dT)19, 5′ guanosine, PS linkage (DNA rG*dTdTdTdTdTdTdTdTdTdTdTdTdTdTdTdTdTdTdT)
- Half-lives (T1/2), ty2 (phosphodiesterase II): 41 h

Substance: Parent (AD-64958): TTR siRNA; passenger a•a•caguGuUCUugcucuauaa(L), guide u•U•auaGagcaagaAcAcuguu•u•u (sense CAGUGUUCUUGCUCUAUAA; antisense AUAGAGCAAGAACACUGUU; phosphorothioate ends, overhangs, chemistry not fully specified)
- IC50 ([1]; TTR (Seq 2)): 0.05 nM
- A/G Avg. [2]: 1.3
- ALB Avg. [2]: 2.9 g/dL
- ALP Avg. [2]: 427 U/L
- ALT Avg. [2]: 108 U/L
- AST Avg. [2]: 332 U/L
- BILI Avg. [2]: 0.48 mg/dL
- CA Avg. [2]: 9.9 mg/dL
- CHOL Avg. [2]: 43 mg/dL
- CREAT Avg. [2]: 0.21 mg/dL
- GLDH Avg. [2]: 140.8 U/L
- GLOB Avg. [2]: 2.27 g/dL
- GLUC Avg. [2]: 124 mg/dL
- K Avg. [2]: 4.9 mmol/L
- NA Avg. [2]: 140 mmol/L
- PHOS Avg. [2]: 9.0 mg/dL
- PROT Avg. [2]: 5 g/dL
- TRIG Avg. [2]: 51 mg/dL
- UREAN Avg. [2]: 18.6 mg/dL
- On-Target mRNA remaining (%) 0.1 nM siRNA (TTR; TTR (Seq 2), primary mouse hepatocytes, 0.1 nM siRNA): 25.5%
- On-Target mRNA remaining (%) 10 nM siRNA (TTR; TTR (Seq 2), primary mouse hepatocytes, 10 nM siRNA): 2.3%

Substance: Parent (AD-125773): TTR siRNA; passenger u•u•cuugCuCUAuaaaccgugu(L), guide a•C•acgguuuauagAgCaagaa•c•a (sense CUUGCUCUAUAAACCGUGU; antisense ACGGUUUAUAGAGCAAGAA; phosphorothioate ends, overhangs, chemistry not fully specified)
- IC50 ([1]; TTR-4, modification at antisense position 7): 1.21 nM
- IC50 (TTR; TTR-4, modification at antisense position 7, primary mouse hepatocytes): 0.136 nM

Substance: SpodT19: (G5m)(dT)19, 5′-end (S)-5′-C-methyl guanosine, PO linkage ([5'S-Me-G]dTdTdTdTdTdTdTdTdTdTdTdTdTdTdTdTdTdTdT)
- Half-lives (T1/2), ty2 (phosphodiesterase II): <1 h
- Half-lives (T1/2), t12 (phosphodiesterase II): <1 h

From patent US20250207131A1, “MODIFIED RNA AGENTS WITH REDUCED OFF-TARGET EFFECT” (Alnylam Pharmaceuticals, Inc., priority 2018, published 2025)
